Assays:
mice = settings: Cokeleare et al. 1995; cited from earlier work
chickens = settings: Cokeleare et al. 1995; cited from earlier work
rats = settings: Cokeleare et al. 1995; cited from earlier work
[1] = Solubility of didemethyl simmondsin in absolute ethanol; format: physicochemical
Method: DWE, 1 gram, was stirred 30 min with 20 ml of either acetone, acetonitrile,chloroform, methanol, water, ethanol, isopropanol, 95/5 isopropanol/water or 5/95 methanol/chloroform. Supernatant was filtered, dried, weighed, and analyzed for simmondsin and analogues. […] Both the amount of simmondsins extracted and their enrichment in the extract are important in choosing a selective solvent. Therefore, selectivity was calculated as enrichment times concentration for each component, simmondsin, simmondsin ferulate, demethylsimmondsin and didemethyl simmondsin as well as the total for all four components and plotted against solvent composition and solvent to solute ratio. For simmondsin, selectivity or SIMM-- X=[(concentration of simmondsin in extract)/(concentration of simmondsin in DWE)][weight of simmondsin in extract/weight of simmondsin in DWE].

[2] = statement without test; cited from earlier work

| Structure (SMILES) | Food intake (mice) | Food intake (chickens) | Food intake (rats) | Solubility in absolute ethanol [1] | Bioactivity [2] |
| --- | --- | --- | --- | --- | --- |
| CO[C@H]1[C@@H](OC)C[C@@H](O[C@@H]2O[C@H](CO)[C@@H](O)[C@H](O)[C@H]2O)/C(=C\C#N)[C@@H]1O [simmondsin] | reduces food intake | reduces food intake | reduces food intake |  |  |
| N#CC=C1C(OC2OC(CO)C(O)C(O)C2O)CC(O)C(O)C1O (centres unmarked) [didemethyl simmondsin] |  |  |  | very limited | non-bioactive |

— patent US6007823A, “Simmondsin concentrate from jojoba” (The United States of America as represented by the …, priority 1998, dated 1999)
